The results in this text go back to US20240150321A1, “PYRAZOLYLSULFONAMIDE COMPOUNDS AND THEIR USE IN THERAPY” (HOTSPOT THERAPEUTICS, INC., priority 2022, published 2024).

Molecules are shown by their SMILES. Bounds are passed on as bounds.

For assay [1], the target named is Avi-tagged FL MALT-1 (Homo sapiens (Human), UniProt Q9UDY8). Kind of assay: MALT-1 Fluorogenic Peptide Cleavage Assay (MALT1 inhibition assay). The assay is classed as biochemical. Conditions: Ac-LRSR-AMC peptide substrate, 30 min pre-incubation, 90 min reaction at room temperature. Here is the method: Inhibition of MALT1 activity by the presence of small molecules was evaluated using MALT-1 Fluorogenic Peptide Cleavage Assay. The assay utilizes a quenched AMC-labelled peptide that contains the MALT-1 recognition sequence and cleavage site (LRSR). MALT-1 mediated cleavage of the peptide relieves the quenching and leads to an increase in fluorescence at excitation (342 nm) and emission (441 nm).
The following reagents were obtained commercially and used to prepare standard reagent formulations as further described below: N-2-hydroxyethylpiperazine-N-2-ethane sulfonic acid (HEPES) (1 M, pH 7.5, stored at 4° C.), sodium citrate (stored at RT), tris(2-carboxyethyl) phosphine hydrochloride (T-CEP) (500 mM, stored at −20° C.), ethylenediaminetetraacetic acid (EDTA) (500 mM, stored at RT), dimethylsulfoxide (DMSO, stored at RT), 3-[(3-cholamido-propyl)dimethylammonio]-1-propane sulphate (CHAPS) (stored at RT), dimethylsulfoxide (DMSO), DMSO (Fisher Scientific, stored at RT), Avi-tagged FL MALT-1 (Pharmaron, stored at −70° C.), Ac-LRSR-AMC Peptide (SM Biochemicals, stored at −20° C.)., and ultrapure water (MILLLI-Q©).
The standard reagent formulations used in this assay were prepared and stored as follows. A 1.1 M solution of sodium citrate (161.3 g, 500 mL) was prepared and stored at room temperature. A 10% (w/v) CHAPS solution (2.0 g, 20 mL) was prepared and stored at 4° C. A 500 mM HEPES solution having pH of 6.89 was prepared from 200 mL of a 1 M HEPES solution having a pH of 7.5 using concentrated hydrochloric acid and brought to a final volume of 400 mL with MILLI-Q© H2O. The substrate, 10 mM Ac-LRSR-AMC Peptide, was prepared (10 mg, 1.370 mL DMSO) and stored at −20° C.
Compounds were plated to provide a 2% DMSO final concentration using a ProxiPlate-384 Plus F Black 384-shallow well microplate. The assay-ready plates were equilibrated to room temperature. A reaction buffer (30 mL total volume) was prepared by combining HEPES (pH 6.89, 25 mM, 1.5 mL), sodium citrate (660 mM, 18.0 mL), T-CEP (1 mM, 0.06 mL), EDTA ([…], 0.06 mL), CHAPS (0.05%, 0.15 mL), DMSO (2%, 0.6 mL), and MILLI-Q© H2O (10.23 mL; 9.63 mL when backfilled to 2% DMSO) followed by thorough mixing. DMSO was added only when compound plates had not been DMSO-backfilled to 2%.
MALT-1 was thawed and kept on ice. Peptide substrate was thawed on the bench under ambient conditions. A MALT-1 enzyme working stock was prepared from Avi-tagged FL MALT-1 (40 nM in a prepared reagent volume of 16.5 μL) and the reaction buffer (13.0 mL). MALT1 working stock (5 μL) was added to each well of the microplate. MALT-1 was pre-incubated with compounds for 30 minutes at room temperature.
Two substrate working stocks (Km and 10×Km) were prepared. The 1×Km substrate was prepared from Ac-LRSR-AMC Peptide (50 μM in a prepared reagent volume of 35.0 μL) and the reaction buffer (6.965 mL). The 10×Km substrate was prepared from Ac-LRSR-AMC Peptide (280 μM in a prepared reagent volume of 196.0 μL) and the reaction buffer (6.804 mL). The reaction was initiated by the addition of substrate working stock (5 μL, 50 μM) to Km plates and the addition of substrate working stock (5 μL 280 μM) to 10×Km plates. The plates were covered and incubated on the bench at room temperature for 90 minutes.
Fluorescence intensity was determined using a CLARIOstar microplate reader (BMG LABTECH) using the optimised AMC mode. Before taking readings, a 70% gain was applied on the neutral control well. Compound data were normalised to % Inhibition and used to plot sigmoidal concentration response curves to yield various parameters including IC50.

Assay [2] relates to NF-kB reporter in Jurkat cells. The experiment in a line: NF-kB reporter assay in Jurkat cells stimulated with aCD3/aCD28/PMA. As to conditions: Homo sapiens; Jurkat cells, 1 hr compound pre-incubation, aCD3/aCD28/PMA stimulation 4 hr, One-Glo readout; read-out: NF-kB Reporter Assay IC50. Format: cell-based. The protocol:
Jurkat cells were maintained in complete RPMI 1640 media supplemented with 10% FBS. Prior to the assay, 120 nL of the serial diluted compound was added in each well of 384-well flat bottom white plate (Corning #3570) by using liquid handler Echo550. Jurkat cells were harvested by centrifugation at 120 g for 10 min and resuspended in fresh RPMI 1640 media without serum. […] (25,000 cells) were seeded in each well of 384-well plate containing compound. After 1 hr incubation at 37° C. in a 5% CO2 incubator, […] of diluted aCD3/aCD28/PMA (final concentration at […] and […], respectively) in RPMI 1640 without serum were added to each well. After incubation at 37° C. in 5% CO2 for 4 hr, […] of One-Glo reagent (Promega #E6120) was added into each well. The plate was left at room temperature for 5 min and the signal was measured on EnVision (PerkinElmer).
Compounds in which an IC50 was not measured are designated as “N/A”.
(In general: Reporter assays use an easily measured gene product as a stand-in for the process of interest.)

Sequence of Avi-tagged FL MALT-1 (Q9UDY8 whole entry): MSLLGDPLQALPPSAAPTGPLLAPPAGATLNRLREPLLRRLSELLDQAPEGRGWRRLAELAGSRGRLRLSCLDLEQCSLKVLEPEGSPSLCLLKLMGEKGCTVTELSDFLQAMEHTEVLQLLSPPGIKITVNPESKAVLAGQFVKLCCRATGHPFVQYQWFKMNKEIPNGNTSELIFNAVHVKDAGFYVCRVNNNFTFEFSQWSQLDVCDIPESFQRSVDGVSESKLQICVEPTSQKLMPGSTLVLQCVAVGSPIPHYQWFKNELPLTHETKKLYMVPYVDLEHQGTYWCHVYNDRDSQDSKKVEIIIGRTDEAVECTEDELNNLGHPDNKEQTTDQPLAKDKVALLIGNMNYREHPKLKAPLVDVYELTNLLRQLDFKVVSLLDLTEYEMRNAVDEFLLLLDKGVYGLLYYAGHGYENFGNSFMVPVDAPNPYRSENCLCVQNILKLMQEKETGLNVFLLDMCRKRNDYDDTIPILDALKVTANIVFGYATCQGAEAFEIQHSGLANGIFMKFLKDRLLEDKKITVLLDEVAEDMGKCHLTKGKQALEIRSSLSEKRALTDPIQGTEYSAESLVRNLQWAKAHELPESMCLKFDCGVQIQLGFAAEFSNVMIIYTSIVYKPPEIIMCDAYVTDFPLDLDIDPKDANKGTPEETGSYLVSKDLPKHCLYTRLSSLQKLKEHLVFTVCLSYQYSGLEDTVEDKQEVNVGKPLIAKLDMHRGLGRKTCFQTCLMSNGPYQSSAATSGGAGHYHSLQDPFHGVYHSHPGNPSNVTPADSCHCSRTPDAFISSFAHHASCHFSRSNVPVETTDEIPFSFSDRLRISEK

`C#Cc1ccc2cnn(C)c2c1NS(=O)(=O)c1cnn(-c2ccnc(C(F)(F)F)c2)c1` [Compound I-8, N-(6-Ethynyl-1-Methylindazol-7-yl)-1-(2-(Trifluoromethyl) Pyridin-4-yl)-Pyrazole-4-Sulfonamide]: the 50% inhibitory concentration (IC50) (in general, the concentration that gives 50% inhibition) is ≤ 400 nM in assay [1] and 400 to 1000 nM in assay [2].

In the case of `CCOc1ccc2cnn(C)c2c1NS(=O)(=O)c1cnn(-c2ccnc(C(F)(F)F)c2)c1` [Compound I-9, N-(6-Ethoxy-1-Methyl-1H-Indazol-7-yl)-1-(2-(Trifluoromethyl)Pyridin-4-yl)-1H-Pyrazole-4-Sulfonamide], the half-inhibitory concentration (IC50) in assay [1] was ≤ 400 nM; in assay [2], 400 to 1000 nM.

Consider `CC(C)Oc1ccc2cnn(C)c2c1NS(=O)(=O)c1cnn(-c2ccnc(C(F)(F)F)c2)c1` [Compound I-10, N-(6-Isopropoxy-1-Methyl-1H-Indazol-7-yl)-1-(2-(Trifluoromethyl)Pyridin-4-yl)-1H-Pyrazole-4-Sulfonamide], for which the results for the 50% inhibitory concentration (IC50) in assay [1] and in assay [2] were ≤ 400 nM and 400 to 1000 nM, respectively.

For `CCc1ccc2cnn(C)c2c1NS(=O)(=O)c1cnn(-c2cc(C(F)(F)F)ccn2)c1` [Compound I-14, N-(6-Ethyl-1-Methyl-1H-Indazol-7-yl)-1-(4-(Trifluoromethyl) Pyridin-2-yl)-1H-Pyrazole-4-Sulfonamide], the figures for the IC50 in assay [1] and in assay [2] were ≤ 400 nM and < 400 nM, respectively.

For `Cn1ncc2cccc(NS(=O)(=O)c3cnn(-c4cc(C(F)(F)F)ccn4)c3)c21` [Compound I-15, N-(1-Methyl-1H-Indazol-7-yl)-1-(4-(Trifluoromethyl)Pyridin-2-yl)-1H-Pyrazole-4-Sulfonamide], the figures for the IC50 in assay [1] and in assay [2] were 400 to 1000 nM and < 400 nM, respectively.

On to `Cn1ncc2cccc(NS(=O)(=O)c3cnn(-c4ccnc(C(F)(F)F)c4)c3)c21` [Compound I-16, N-(1-Methyl-1H-Indazol-7-yl)-1-(2-(Trifluoromethyl)Pyridin-4-yl)-1H-Pyrazole-4-Sulfonamidemide], for which the IC50 in assay [1] and in assay [2] was > 2500 nM each time.

As to `Cn1ncc2ccc(C3CC3)c(NS(=O)(=O)c3cnn(-c4cncc(C(F)(F)F)c4)c3)c21` [Compound I-18], the half-maximal inhibitory concentration (IC50) in assay [1] was ≤ 400 nM; in assay [2] it was 400 to 1000 nM.

For the compound `CCc1ccc2cnn(C)c2c1NS(=O)(=O)c1cnn(-c2cc(C(F)(F)F)ncn2)c1` [Compound I-19, N-(6-Ethyl-1-Methyl-1H-Indazol-7-yl)-1-(6-(Trifluoromethyl) Pyrimidin-4-yl)-1H-Pyrazole-4-Sulfonamide], the IC50 in assay [1] is ≤ 400 nM; in assay [2], < 400 nM.

For `Cn1ncc2ccc(C3CC3)c(NS(=O)(=O)c3cnn(-c4ccc(C(F)(F)F)cn4)c3)c21` [Compound I-20, N-(6-Cyclopropyl-1-Methyl-1H-Indazol-7-yl)-1-(5-(Trifluoromethyl)Pyridin-2-yl)-1H-Pyrazole-4-Sulfonamide], the IC50 in assay [1] and in assay [2] was 1000 to 2500 nM throughout.

With `Cn1ncc2ccc(C3CC3)c(NS(=O)(=O)c3cnn(-c4ccnc(C(F)(F)F)c4)c3)c21` [Compound I-21, N-(6-cyclopropyl-1-Methyl-1H-Indazol-7-yl)-1-(2-(Trifluoromethyl)Pyridin-4-yl)-1H-Pyrazole-4-Sulfonamide], the values for the IC50 in assay [1] and in assay [2] were ≤ 400 nM and < 400 nM, respectively.

For the compound `COc1ccc2cnn(C)c2c1NS(=O)(=O)c1cnn(-c2ccc(C(F)(F)F)cn2)c1` [Compound I-22, N-(6-Methoxy-1-Methyl-1H-Indazol-7-yl)-1-(5-(Trifluoromethyl)Pyridin-2-yl)-1H-Pyrazole-4-Sulfonamide], the IC50 in assay [1] is ≤ 400 nM; in assay [2], < 400 nM.

Regarding `COc1ccc2cnn(C)c2c1NS(=O)(=O)c1cnn(-c2cncc(C(F)(F)F)c2)c1` [Compound I-23, N-(6-Methoxy-1-Methyl-1H-Indazol-7-yl)-1-(5-(Trifluoromethyl)Pyridin-3-yl)-1H-Pyrazole-4-Sulfonamide], the IC50 in assay [1] is ≤ 400 nM; in assay [2] it was < 400 nM.

For the compound `COc1ccc2cnn(C)c2c1NS(=O)(=O)c1cnn(-c2cc(C(F)(F)F)ncn2)c1` [Compound I-24, N-(6-Methoxy-1-Methyl-1H-Indazol-7-yl)-1-(6-(Trifluoromethyl)Pyrimidin-4-yl)-1H-Pyrazole-4-Sulfonamid], the IC50 in assay [1] and in assay [2] was 400 to 1000 nM throughout.

As for `COc1ccc2cnn(C)c2c1N(C)S(=O)(=O)c1cnn(-c2ccnc(C(F)(F)F)c2)c1` [Compound I-25, N-(6-Methoxy-1-Methyl-1H-Indazol-7-yl)-N-methyl-1-(2-(Trifluoromethyl)Pyridin-4-yl)-1H-Pyrazole-4-Sulfonamide], the half-inhibitory concentration (IC50) in assay [1] is ≤ 400 nM; in assay [2], < 400 nM.

For `CCN(c1c(OC)ccc2cnn(C)c12)S(=O)(=O)c1cnn(-c2ccnc(C(F)(F)F)c2)c1` [Compound I-26, N-(6-Methoxy-1-Methyl-1H-Indazol-7-yl)-N-Ethyl-1-(2-(Trifluoromethyl)Pyridin-4-yl)-1H-Pyrazole-4-Sulfonamide], the IC50 in assay [1] is ≤ 400 nM; in assay [2], < 400 nM.

Take `CCc1ccc2cnn(C)c2c1NS(=O)(=O)c1cn(-c2ccnc(C(F)(F)F)c2)nn1` [Compound I-27, N-(6-Ethyl-1-Methyl-1H-Indazol-7-yl)-1-(2-(Trifluoromethyl) Pyridin-4-yl)-1H-1,2,3-Triazole-4-Sulfonamide]: the IC50 in assay [1] is 400 to 1000 nM; in assay [2] it was > 2500 nM.

With `CCc1ccc2cnn(C)c2c1NS(=O)(=O)c1cnn(-c2ccnc(C(F)(F)F)c2)n1` [Compound I-28, N-(6-Ethyl-1-Methyl-1H-Indazol-7-yl)-2-(2-(Trifluoromethyl) Pyridin-4-yl)-2H-1,2,3-Triazole-4-Sulfonamide], the 50% inhibitory concentration (IC50) was ≤ 400 nM in assay [1] and 400 to 1000 nM in assay [2].

`CCc1ccc2cnn(C)c2c1NS(=O)(=O)c1cn(-c2ccnc(C(F)(F)F)c2)nc1C` [Compound I-29, N-(6-Ethyl-1-Methyl-1H-Indazol-7-yl)-3-Methyl-1-(2-(Trifluoromethyl)Pyridin-4-yl)-1H-Pyrazole-4-Sulfonamide]: the IC50 is ≤ 400 nM in assay [1] and 400 to 1000 nM in assay [2].

For `CCc1ccc2cnn(C)c2c1NS(=O)(=O)c1cnn(-c2ccnc(C(F)(F)F)c2)c1C` [Compound I-30, N-(6-Ethyl-1-Methyl-1H-Indazol-7-yl)-5-Methyl-1-(2-(Trifluoromethyl)Pyridin-4-yl)-1H-Pyrazole-4-Sulfonamide], the IC50 in assay [1] was in the range of 400 to 1000 nM; in assay [2], 1000 to 2500 nM.
